{"source": "the supplement of paper PMC10307832", "assay_in_all_cases": "relative viability (nuclei count vs DMSO), 5 days (fraction); higher = more cells survive", "key": {"Idelalisib + Navitoclax": {"compound": "CC[C@H](Nc1ncnc2[nH]cnc12)c1nc2cccc(F)c2c(=O)n1-c1ccccc1 [Idelalisib] + CC1(C)CCC(c2ccc(Cl)cc2)=C(CN2CCN(c3ccc(C(=O)NS(=O)(=O)c4ccc(N[C@H](CCN5CCOCC5)CSc5ccccc5)c(S(=O)(=O)C(F)(F)F)c4)cc3)CC2)C1 [Navitoclax] (partner 0.5 µM)", "procedure,_shortened": "(§1)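 One day after seeding in 1536-well plates, lung cancer cell lines were dosed by pin tool. Dosing was either single-drug or a fixed anchor-drug dose plus five library-drug doses (not always all listed) in √10 steps. After 5 days, nuclei were stained in one fix-and-stain step and counted on 4× images, and relative viability is the nuclei count of treated wells over that of vehicle wells, given as the median of duplicate plates.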"}, "Idelalisib + Pemetrexed": {"compound": "CC[C@H](Nc1ncnc2[nH]cnc12)c1nc2cccc(F)c2c(=O)n1-c1ccccc1 [Idelalisib] + Nc1nc2[nH]cc(CCc3ccc(C(=O)N[C@@H](CCC(=O)O)C(=O)O)cc3)c2c(=O)[nH]1 [Pemetrexed] (partner 0.2 µM)", "procedure,_shortened": "as §1"}, "Pemetrexed + Luminespib": {"compound": "Nc1nc2[nH]cc(CCc3ccc(C(=O)N[C@@H](CCC(=O)O)C(=O)O)cc3)c2c(=O)[nH]1 [Pemetrexed] + CCNC(=O)c1noc(-c2cc(C(C)C)c(O)cc2O)c1-c1ccc(CN2CCOCC2)cc1 [Luminespib] (partner 0.01 µM)", "procedure,_shortened": "as §1"}, "Pemetrexed + Tozasertib": {"compound": "Nc1nc2[nH]cc(CCc3ccc(C(=O)N[C@@H](CCC(=O)O)C(=O)O)cc3)c2c(=O)[nH]1 [Pemetrexed] + Cc1cc(Nc2cc(N3CCN(C)CC3)nc(Sc3ccc(NC(=O)C4CC4)cc3)n2)n[nH]1 [Tozasertib] (partner 0.1 µM)", "procedure,_shortened": "as §1"}}}
{"cell line": "UMC-11", "values": [{"measurement": "relative viability", "setting": "Idelalisib + Navitoclax; first compound 0.04 µM", "result": 0.366}, {"measurement": "relative viability", "setting": "Idelalisib + Navitoclax; first compound 0.1265 µM", "result": 0.326}, {"measurement": "relative viability", "setting": "Idelalisib + Navitoclax; first compound 0.4 µM", "result": 0.274}, {"measurement": "relative viability", "setting": "Idelalisib + Navitoclax; first compound 1.265 µM", "result": 0.291}, {"measurement": "relative viability", "setting": "Idelalisib + Navitoclax; first compound 4 µM", "result": 0.336}, {"measurement": "relative viability", "setting": "Idelalisib + Pemetrexed; first compound 0.04 µM", "result": 0.673}, {"measurement": "relative viability", "setting": "Idelalisib + Pemetrexed; first compound 0.1265 µM", "result": 0.77}, {"measurement": "relative viability", "setting": "Idelalisib + Pemetrexed; first compound 0.4 µM", "result": 0.793}, {"measurement": "relative viability", "setting": "Idelalisib + Pemetrexed; first compound 1.265 µM", "result": 0.839}, {"measurement": "relative viability", "setting": "Idelalisib + Pemetrexed; first compound 4 µM", "result": 0.936}, {"measurement": "relative viability", "setting": "Pemetrexed + Luminespib; first compound 0.002 µM", "result": 0.989}, {"measurement": "relative viability", "setting": "Pemetrexed + Luminespib; first compound 0.006325 µM", "result": 0.972}, {"measurement": "relative viability", "setting": "Pemetrexed + Luminespib; first compound 0.02 µM", "result": 1.03}, {"measurement": "relative viability", "setting": "Pemetrexed + Luminespib; first compound 0.06325 µM", "result": 1.09}, {"measurement": "relative viability", "setting": "Pemetrexed + Luminespib; first compound 0.2 µM", "result": 0.923}, {"measurement": "relative viability", "setting": "Pemetrexed + Tozasertib; first compound 0.002 µM", "result": 0.196}, {"measurement": "relative viability", "setting": "Pemetrexed + Tozasertib; first compound 0.006325 µM", "result": 0.217}, {"measurement": "relative viability", "setting": "Pemetrexed + Tozasertib; first compound 0.02 µM", "result": 0.199}, {"measurement": "relative viability", "setting": "Pemetrexed + Tozasertib; first compound 0.06325 µM", "result": 0.202}, {"measurement": "relative viability", "setting": "Pemetrexed + Tozasertib; first compound 0.2 µM", "result": 0.208}]}
